According to US20220169622A1, “AMPLIFICATION OF NUCLEIC ACIDS” (Abbott Molecular Inc., priority 2018, published 2022):
Entries after “also recorded” stand apart in the source; their conditions may differ.

Tests used:
Assay type in all cases: biochemical
[1] = test system: non-specific amplification products; assay: RT-PCR without template, EVA Green monitoring of non-specific amplification products (Example 1); details: 0.0015, 0.005, 0.01% (w/w) MIT (0.015, 0.05, 0.1% (w/w) PROCLIN 950); no template; compared to reactions without MIT
From the text: The primers and probes in the reaction mixtures target HIV-1 nucleic acids. The fluorescent DNA-intercalating dye, EVA Green, was included in each reaction to monitor the accumulation of non-specific amplification products. Realtime EVA Green fluorescence signals from RT-PCR reactions comprising […], 0.05. and 0.1% (w/w) PROCLIN 950 are shown in FIG. 1.

Chlamydia trachomatis = assay: Prototype CT/NG assay RT-PCR with 0.1 inclusion forming units (Example 4); details: 0.015% (w/w) PROCLIN 950 (0.0015% (w/w) MIT); 0.1 inclusion forming units of Chlamydia trachomatis; compared to no PROCLIN 950
Procedure: During the development of embodiments of the technology provided herein, experiments were conducted to test RT-PCR in the presence of MIT in a prototype CT/NG assay master mix. Prototype CT/NG assay master mixes comprising 0.1 inclusion forming units of Chlamydia trachomatis and either 0.015% (w/w) PROCLIN 950 (0.0015% (w/w) MIT) or comprising no PROCLIN 950 were tested by RT-PCR (8 replicates each condition). CT-specific realtime fluorescence signals from CT/NG RT-PCR reactions comprising 0 or 0.015% (w/w) PROCLIN 950 (0.0015% (w/w) MIT) are shown in FIG. 4. […] Further, the prototype CT/NG assay uses different primer and probe sets than the prototype HIV-1 assay described in Example 3.

[2] = test system: non-specific amplification products; assay: RT-PCR without HIV-1 target RNA after master mix incubation at 2 to 8° C. for 16 hours, EVA Green (Example 2); details: 0.0015, 0.005, 0.01% (w/w) MIT; master mix incubated at 2 to 8° C. for 16 hours; no HIV-1 target RNA; compared to reactions without MIT
Procedure: During the development of embodiments of the technology provided herein, experiments were conducted to simulate the preparation of bulk RT-PCR reagents by a commercial manufacturing process. In particular, prototype HIV-1 assay master mixes comprising 0, 0.015, 0.05, and 0.1% (w/w) PROCLIN 950 (corresponding to 0, 0.0015, 0.005, and 0.01% (w/w) MIT concentrations, respectively) were incubated at 2 to 8° C. for 16 hours. RT-PCR was then performed with each master mix in the absence of HIV-1 target RNA (2 replicates per condition). The fluorescent DNA-intercalating dye. EVA Green was included in each reaction to monitor the accumulation of non-specific amplification products. Realtime EVA Green fluorescence signals from RT-PCR reactions comprising 0, 0.015, 0.05, and 0.1% (w/w) PROCLIN 950 are shown in FIG. 2.

HIV-1 target RNA = assay: Prototype HIV-1 assay RT-PCR with 50 copies of target RNA (Example 3); details: 0.015% (w/w) PROCLIN 950 (0.0015% (w/w) MIT); 50 copies of HIV-1 target RNA; compared to no PROCLIN 950
Procedure: During the development of embodiments of the technology provided herein, experiments were conducted to test RT-PCR in the presence of MIT in a prototype HIV-1 assay master mix. Prototype HIV-1 assay master mixes comprising 50 copies of HIV-1 target RNA and either 0.015% (w/w) PROCLIN 950 (0.0015% (w/w) MIT) or comprising no PROCLIN 950 were tested by RT-PCR (8 replicates each condition). HIV-specific realtime fluorescence signals from HIV-1 RT-PCR reactions comprising 0 or 0.015% (w/w) PROCLIN 950 are shown in FIG. 3.

## Cn1sccc1=O [MIT, 2-methyl-4-isothiazolin-3-one]
[1]
  non-specific product formation (EVA Green signal): reduces the accumulation of non-specific product; also recorded: decreased levels of non-specific product formation
Chlamydia trachomatis
  CT-specific realtime fluorescence signal (RT-PCR performance): enhances RT-PCR performance
[2]
  non-specific product formation (EVA Green signal): reduces the accumulation of non-specific product during prolonged storage; also recorded: decreased levels of non-specific product formation
HIV-1 target RNA
  HIV-specific realtime fluorescence signal (RT-PCR performance): enhances RT-PCR performance
